Reference: patent publication EP4582432A1, “NOVEL COMPOUND AND MRI CONTRAST AGENT COMPRISING SAME” (Theranocure Co., Ltd., priority 2022, dated 2024)
Read-outs that look alike come from different tables or passages of the source.

Legend:
[1] = value marked with footnote a (footnote not given); cited from earlier work
[2] = 3.0-T, Water; value marked with footnote a (footnote not given); cited from earlier work
[3] = target: T1, HSA (Homo sapiens, UniProt P02768)
Method: (§1) The HSA binding affinity was measured using ultrafiltration analysis.

[4] = Relaxability (r1 and r2) under 3.0T and 9.4T magnetic fields in water and HSA; assay type: physicochemical
[5] = system: liver; test: 3.0T MR imaging of liver and gallbladder in normal mice versus commercial contrast agents; assay type: in vivo; conditions: 5min to 120min after injection, FIG. 9
[6] = target: T1, HSA; test: HSA binding affinity by ultrafiltration analysis
Method: as §1

[7] = Hydrophilicity (log P)
Source text: The Log P value is a value for evaluating the hydrophilicity. When the P value is smaller than 1, the Log P value becomes negative to indicate the hydrophilicity. When the P value is greater than 1, the Log P value becomes positive to indicate lipophilicity.

[8] = system: C6 glioma; test: MR imaging of brain cancer model; assay type: in vivo; conditions: 0.1 mmol/kg Gd-DO3A-butrol versus 0.05 mmol/kg Gd-PCTA-Ach; FIG. 8A
Method: After a brain cancer model was prepared using C6 glioma which is a brain cancer cell, 0.1mmol/kg of Gd-PCTA-Ach 0.1mmol/kg, Gd-PCTA-Ach 0.05mmol/kg, and Gd-DO3A-butrol were injected thereto, respectively, to obtain MR images (FIG. 8A) and CNR graphs (FIG. 8B) according to the MR images, and the results are shown in FIG. 8.

T1 sequence (P02768 25-609): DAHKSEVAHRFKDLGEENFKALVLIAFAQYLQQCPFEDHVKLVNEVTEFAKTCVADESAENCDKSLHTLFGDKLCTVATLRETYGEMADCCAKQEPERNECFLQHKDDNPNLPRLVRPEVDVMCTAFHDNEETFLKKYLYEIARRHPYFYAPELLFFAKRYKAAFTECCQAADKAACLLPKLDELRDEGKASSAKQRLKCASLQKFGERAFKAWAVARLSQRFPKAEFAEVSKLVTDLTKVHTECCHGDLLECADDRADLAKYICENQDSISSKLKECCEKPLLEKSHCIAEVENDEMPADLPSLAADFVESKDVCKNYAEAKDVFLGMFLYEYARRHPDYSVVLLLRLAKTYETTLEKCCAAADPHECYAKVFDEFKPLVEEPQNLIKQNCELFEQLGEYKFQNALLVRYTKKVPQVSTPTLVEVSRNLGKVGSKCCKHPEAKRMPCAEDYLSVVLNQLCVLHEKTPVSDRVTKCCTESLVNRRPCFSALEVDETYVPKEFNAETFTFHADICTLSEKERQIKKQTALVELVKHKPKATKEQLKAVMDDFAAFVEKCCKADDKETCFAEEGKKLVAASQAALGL

Compound | log P (log Co/Cw) [1] | r1 [2] [mM⁻¹ s⁻¹] | HSA bindin g affinity (%) [3] [%] | r1 ([4]; 3.0-T, HSA) [mM⁻¹ s⁻¹] | r2 ([4]; 3.0-T, HSA) [mM⁻¹ s⁻¹] | r1 ([4]; 3.0-T, Water) [mM⁻¹ s⁻¹] | r2 ([4]; 3.0-T, Water) [mM⁻¹ s⁻¹] | r1 ([4]; 9.4-T, Water) [mM⁻¹ s⁻¹] | r2 ([4]; 9.4-T, Water) [mM⁻¹ s⁻¹] | gallbladder contrast enhancement over time [5] | HSA bindin g affinity (%) [6] [%] | log P (log Co/Cw) [7] | brightness in MR image [8]
O=C(CCC(C(=O)[O-])N1CCN(C(CCC(=O)NCC(O)CO)C(=O)[O-])Cc2cccc(n2)CN(C(CCC(=O)NCC(O)CO)C(=O)[O-])CC1)NCC(O)CO.[Gd+3] (stereo not shown) [Gadopiclenol] | -4.2 | 11.3 | – | – | – | – | – | – | – | – | – | – | –
O=C([O-])CN(CCN(CC(=O)[O-])CC(=O)[O-])CCN(CC(=O)[O-])C(COCc1ccccc1)C(=O)[O-].[Gd+3] (stereo not shown) [Gd-BOPTA] | – | – | 15.0 | 5.8 ± 0.2 | 9.0 ± 0.3 | 5.1 ± 0.02 | 6.8 ± 0.4 | 6.1 ± 1.1 | 8.1 ± 1.4 | initially enhanced, and then was observed to decrease slowly | – | – | –
CCOc1ccc(C[C@@H](CN(CCN(CC(=O)[O-])CC(=O)[O-])CC(=O)[O-])N(CC(=O)[O-])CC(=O)[O-])cc1.[Gd+3].[Na+].[Na+] [Gd-EOB-DTPA] | – | – | – | 7.7 ± 0.1 | 11.1 ± 0.04 | 6.5 ± 0.04 | 7.3 ± 0.4 | 7.4 ± 1.4 | 10.7 ± 1.9 | initially enhanced, and then was observed to decrease slowly | 8.9 | -2.9 | –
Gd-DO3A-butrol | – | – | – | 4.3 ± 0.1 | 6.5 ± 0.1 | 4.3 ± 0.2 | 5.5 ± 0.02 | 4.9 ± 0.9 | 6.4 ± 1.1 | – | 3.4 | -3.1 | comparable
